# Experimental data published in patent US6755971B2, “Microbiological removal of bromine salts from fluid streams” (AKZO Nobel N.V., priority 1999, dated 2004).
# Legend:
# [1] = system: micro-organisms immobilised on pumice particles; experiment: Bacterial growth inhibition test with sulfite; type: cell-based; conditions: 5 days
# Procedure: (§1) Batch experiments were conducted in 110 ml gas-tight glass vessels, which were filled with 10 ml of mineral medium. The gas-phase and the medium in the vessels were flushed with nitrogen. Hydrogen gas was supplied by injection of a known amount using a gas-tight syringe (up to 150 kPa). Vessels were incubated at 30° C. in a shaking water bath. Micro-organisms immobilised on pumice particles were withdrawn from the gas-lift reactor whenever steady state conditions were reached and washed twice with phosphate buffer (20 mM) before use. These immobilised micro-organisms were used to inoculate the cultures. Various salt concentrations in the batch cultures were obtained by adding various amounts of sodium chloride. Sodium sulfite was added to cultures in various amounts from a freshly prepared stock solution. The test vessels for the growth experiments were inoculated by injecting 5 ml of effluent from the reactor. The micro-organisms in the effluent were washed three times with phosphate buffer (20 mM) and concentrated to 0.5 ml by centrifugation (10,000 g, 15 min). 4.4 Analytical Procedures
# Besides chlorate and […] the waste water also contains small amounts of hypochlorite. Since hypochlorite is a biocide, removal of this compound before biological treatment is necessary. Hypochlorite can be removed instantly from the waste water using sulfite as reductant. This procedure could be used prior to the biological treatment. To examine whether sulfite is toxic to micro-organisms immobilised on the pumice particles, a toxicity test was performed. Growth was determined after 5 days, and was compared to a control culture without sulfite. The growth was determined by measuring the formation of chloride.
# [2] = system: mixed culture; experiment: Growth experiments with various carbon sources; type: cell-based; conditions: 24 mM substrate, 10 mM chlorate, 30° C., turbidity; further: key: ++: Extensive growth; +: Growth (based on turbidity of culture); +/−: Slight increase in turbidity
# Procedure: Growth of the mixed culture with different carbon and energy sources was determined in 100 ml serum bottles with gas-tight caps filled up to 75% of their volume with mineral salts medium and 24 mM of the substrate and incubated at 30° C. Chlorate was added at a concentration of 10 mM. Growth was followed by determination of the turbidity (visually). The cultures were made anoxic by being flushed with nitrogen gas for approximately 5 minutes. Growth was followed for a maximum period of 2 months.
# [3] = system: chlorate-reducing mixed culture; conditions: up to a concentration of 12 mM, separate experiments
# Procedure: These cultures were inoculated with 1 ml of an exponentially growing culture. […] These cultures were anaerobically incubated at 30° C. in a water bath. The turbidity was measured using a Nephelometer (Hack Ratio XR, Loveland, USA). The turbidity was plotted against time for each of the concentrations and the control. The growth was derived from the slope of the regression line in a plot of In OD 660 versus time. The percentage inhibition of the growth at each concentration was calculated. […] Confidence limits were calculated on the basis of Fieller's theorem. All computations were performed using a statistical software program (SAS, Cary, N.C., USA).
# Growth was followed for approximately 8 hours.
# [4] = system: micro-organisms immobilised on pumice particles; experiment: Influence of high salt concentration on microbial activity (batch); type: cell-based
# Procedure: as §1
# The effect of increased salt concentration in the reactor was investigated in batch experiments. The activity of the micro-organisms immobilised on pumice particles in the batch experiment decreased only slightly with increasing salinity, as indicated in FIG. 19. […]
SMILES,Growth [2],also measured
"O=S([O-])[O-].[Na+].[Na+] [Sulfite, sodium sulfite]",–,Growth inhibition ([1]; sulfite 15 mg/l): 4%; Growth inhibition ([1]; sulfite 45 mg/l): 0%; Growth inhibition ([1]; sulfite 135 mg/l): 6%; Growth inhibition ([1]; sulfite 405 mg/l): 7%
CC(=O)O [acetate],++,–
[O-][Cl+2]([O-])O [chlorate],–,toxicity to the mixed culture [3]: not toxic
CCO [ethanol],++,–
NCC(=O)O [glycine],+/−,–
CC(O)C(=O)O (centres unmarked) [lactate],+,–
O=C(O)CC(O)C(=O)O (centres unmarked) [malate],++,–
CCC(=O)O [propionate],++,–
[Cl-].[Na+] [sodium chloride],–,"effects of increased salinity on activity ([4]; 40 g/l): substantial; activity (chlorate reduction) relative to the maximum ([4]; concentration of 30 μl sodium chloride, unacclimatised micro-organisms): more than 80%"
O=C(O)CCC(=O)O [succinate],++,–
